Reference: a melting point compilation (Tetko et al.; mined from patent text by program, amines drawn as free bases though some values may be those of a salt)

Row | Structure (SMILES) | melting point
1 | O=C(NCCCO)c1c([N+](=O)[O-])ccc(N(CCBr)CCBr)c1[N+](=O)[O-] | 115 to 117 °C
2 | COc1ccc([C@@H]2C[C@H]2NC(=O)N(C)O)cc1OC (relative stereo) | 142 to 144 °C
3 | O=c1[nH]c2ccccc2n1CCN1CCN(c2ccc(O)c(C(F)(F)F)c2)CC1 | > 250 °C
4 | COc1cccc(N2CCN(Cc3ccccc3C(c3ccc(O)cc3)c3ccc(O)cc3)CC2)c1 | 128 to 130 °C
5 | O=C(CN1C(=O)c2ccccc2C1=O)Nc1ccccc1OC(F)(F)F | 192 °C
6 | OC(c1ccccc1)(C1CC1)C(c1cccc(Cl)c1)n1ccnc1 (stereo unspecified) | 140 °C
7 | CC(C)(Cc1ccc(OCCCC(=O)O)cc1)NCC(O)c1cc(OCc2ccccc2)cc2c1OCC(=O)N2 (stereo unspecified) | 216 to 218 °C
8 | NS(=O)(=O)CS(=O)c1ccc(Cl)c(Cl)c1 (stereo unspecified) | 205 to 207 °C
9 | O=C1c2cc3c(cc2CCC1Br)OCC3 (stereo unspecified) | 106 °C
10 | N#CC1=C(c2ccccc2)Nc2ccccc2S1(=O)=O | 286 to 289 °C
11 | CCCCCCCCCCC[C@H](CC(=O)N[C@@H](CO)C(=O)OCc1ccccc1)OC(=O)CCCCCCCC | 52 to 53 °C
12 | Cc1cc(NC(=O)c2cn(-c3ccccc3)c3ccccc3c2=O)no1 | 163 to 164 °C
13 | O=C(NCc1ccccc1)C(Cc1c[nH]c2ccccc12)NC(=O)C(F)(F)F (stereo unspecified) | 186 to 188 °C
14 | c1cc(NC2=NCCN2)ccc1Cc1cc(OC2CCCC2)cs1 | 142 to 143 °C
15 | Brc1cccc(C=C2c3ccccc3CCc3ccccc32)c1 | 105 °C
16 | CCOC(=O)CCc1cn(Cc2ccc(OCc3ccccc3)cc2)nc1OCc1ccc(OCc2ccccc2)cc1 | 98 to 99 °C
17 | CC(C)(C)OC(=O)N1CCC(C(=O)N2CCc3ccc4[nH]c(=O)c(=O)[nH]c4c3C2)CC1 | 283 to 286 °C
18 | CCCCCS(=O)(=O)NC(=O)/C=C/c1ccc(OCCOC)cc1NC(=O)c1ccc(Cl)cc1Cl | 177 °C
19 | CCCCc1cn(CCC)c(=O)n1Cc1ccc(-c2ccccc2-c2nnn[nH]2)nc1 | 164 to 165 °C
20 | CN1C2CCC1CN(c1ccc(-c3ccccc3)cn1)C2 | 110 °C
21 | CCCCCCCCCCCCCCCCCC(=O)c1ccc(OC)c(C(=O)OC)c1 | 73 to 74 °C
22 | CN1Cc2cccc(S(N)(=O)=O)c2S1(=O)=O | 195 to 197 °C

Row | Structure (SMILES) | melting point
23 | Nc1c(Br)cc(S(=O)(=O)Cl)cc1Br | 153 to 155 °C
24 | CCC(CC)c1nn(-c2ccc(Cl)cn2)cc1CCCOc1c(CC(=O)O)cccc1OC | 85 to 86 °C
25 | O=c1nc(-c2cccc(Cl)n2)sc2ccccc12 | 224 to 225 °C
26 | CC1NC(=O)NN=C1c1ccc(Br)cc1 (stereo unspecified) | 214 to 215 °C
27 | Cc1cc(COc2c(Cl)cc(C=O)cc2Cl)oc(=O)c1 | 180 °C
28 | CC(C)(C)OC(=O)C=Cc1cncc2ccccc12 | 81 to 83 °C
29 | Cc1c(C)c2c(c(C)c1C=O)CC(C)(C)C2 | 61 to 62 °C
30 | Cc1ncoc1C(O)c1ccco1 (stereo unspecified) | 52 to 54 °C
31 | CCOC(=O)c1cnc2nc(N3CCN(C)CC3)ncc2c1OCC | 105 to 108 °C
32 | CCCCCC(C)C(C)c1cc(O)c2c(c1)OC(C)(C)C1=C2CN(CC(N)=O)CC1 (stereo unspecified) | 165 to 168 °C
33 | COn1cc(-c2ccccc2)c(=O)c(-c2ccccc2)c1 | 165 °C
34 | CCCc1ccccc1OS(=O)(=O)c1ccc(N2CCN(C)C2=O)cc1 | 103 to 105 °C
35 | Nc1c2c(nc3ccccc13)CCC2 | 180 to 182 °C
36 | CC(C)Cn1c(=O)n(C)c(=O)c2c(-c3ccccc3F)n(Cc3csc4ccccc34)nc21 | 55 to 57 °C
37 | COC(=O)NC[C@H]1CN(c2cc(F)c(N3CCC(n4ncnn4)CC3)c(F)c2)C(=O)O1 | 168 to 170 °C
38 | Nc1c(CC(=O)O)cccc1Oc1ccccc1Cl | 86 to 90 °C
39 | CC(=O)NC[C@H]1CN(c2ccc(C(=O)c3cnc4c(Cl)cc(Cl)cn34)cc2)C(=O)O1 | 228 to 229 °C
40 | Fc1cccc(C2=NOCCS2)c1 | 47 to 49 °C
41 | CC1CCC2(C(=O)O)CCC3(C)C(=CCC4C5(C)CC(O)C(O)C(C)(C)C5CCC43C)C2C1C (stereo unspecified) | 242 to 244 °C
42 | O=C(O)c1ccc(C2OC2C(=O)c2ccccc2)cc1 (stereo unspecified) | 170 to 172 °C
43 | Oc1ccc(CN(Cc2ccc(O)c3ncccc23)Cc2ccc(O)c3ncccc23)c2cccnc12 | 175 to 178 °C
44 | O=C(O)[C@H](Cc1c[nH]c2ccccc12)NC(=O)[C@@H]1C[C@H](S)CN1S(=O)(=O)c1ccc2ccccc2c1 | 130 °C

The remaining lines, values ahead:

Row | melting point | Structure (SMILES)
45 | 178 to 179 °C | COc1ccc(S(=O)(=O)N2CCc3cccc(-c4ccc(F)cc4)c32)cc1
46 | 74 to 75 °C | N#CC(=CC(=O)c1ccccc1)C(=O)O
47 | 261 to 262 °C | CS(=O)c1ccc(-c2nc(-c3nc4ccccc4c(=O)[nH]3)ccc2OCCO)cc1 (stereo unspecified)
48 | 228 to 229 °C | COC(=O)C1=C(C#N)NC(C)=C(P2(=O)OCCCO2)C1c1ccccc1[N+](=O)[O-] (stereo unspecified)
49 | 195 °C | O=C(CC1COC1)N[C@H]1CC[C@H](CCN2CCN(c3nccc4c3CCO4)CC2)CC1
50 | 126 to 127 °C | O=c1c2ccccc2sc2ccc(SC(F)(F)F)cc12
51 | 250 to 251 °C | CSc1ccc(-c2[nH]c3cccc4c3c2CCNC4=O)cc1
52 | 175 °C | N#Cc1cc(NC(=O)c2cc3ccccc3o2)ccc1OC1CCN(Cc2ccccc2)CC1
53 | 164 to 165 °C | COc1ccc(-n2c(-c3cc(-c4ccccc4)c(N4CCOCC4)s3)nc3ccccc3c2=O)cc1
54 | 210 to 220 °C | CCN1c2ccccc2NC(=O)c2cccnc21
55 | 118 °C | CCOC(=O)c1c(S(N)=O)c2cc(C)ccc2n1C (stereo unspecified)
56 | 275 to 278 °C | CC(=O)c1ccc2c(c1)ncn2-c1cccc(-c2cnc(N)nc2)c1
57 | 136 to 138 °C | CC(C)(C)C1(C)C(=O)N=C2c3ccccc3C(=O)N21 (stereo unspecified)
58 | 203 to 204 °C | C[C@H](CO)NC1=NS(=O)(=O)c2sc(Cl)cc2N1
59 | > 325 °C | Nc1nc(N)c2ncn(CC/C=C/P(=O)(O)O)c2n1
60 | 160 to 161 °C | Nc1cc(Cl)nc(OCc2cccc3ccccc23)n1
61 | 130 to 132 °C | O=C1C(CCS(=O)c2ccccc2)C(=O)N(c2ccccc2)N1c1ccccc1 (stereo unspecified)
62 | 174 to 179 °C | Nc1nc(-c2ccc(CCCCN3CCN(c4cccc(C(F)(F)F)c4)CC3)cc2)cs1
63 | 195 to 197 °C | CC(=O)OCC(=O)N1C(C(N)=O)Cc2c([nH]c3ccccc23)C1c1ccccc1 (stereo unspecified)
64 | 183 to 185 °C | Nc1scc2c1C(=O)c1c(Cl)cccc1-2
65 | 89 to 93 °C | CCc1nc2c(cnn2CC)c(NC2CCOCC2)c1CNC(=O)c1cc(C)cc(C(=O)OC)c1
66 | 188 °C | COc1cc([C@@H](O)[C@@H](C)N2CCC(O)(c3ccccc3)CC2)ccc1O (relative stereo)
67 | 116 °C | Cc1ccc(S(=O)(=O)N2CCCC2c2cccc(F)c2)cc1 (racemic)
68 | 179 to 180 °C | COc1cc2cc(C(=O)NO)sc2cc1OC
69 | 158 to 160 °C | CNC(=S)C1=CC(C)(C(F)(F)F)Oc2ccc([N+](=O)[O-])cc21 (stereo unspecified)
70 | 42 to 43 °C | Cc1csc(-c2cccnc2)n1
71 | 81 to 82 °C | O=C(COc1cccnc1)c1ccccc1
